Key:
[1] = Minimum concentration that significantly prolongs APTT versus standard buffer solution; assay type: biochemical; settings: concentration at which the polymeric components of the dye significantly prolonged APTT versus standard buffer solution
[2] = biological target: T1, ESb mouse lymphoma heparanase (Mus musculus, UniProt Q6YGZ1); assay: Inhibition of heparanase degradation of 35S-labelled ECM; assay type: biochemical; settings: 10 µgr/ml, 24 hours; for Total low-mol-wt. HS fragments released by heparanase (cpm): control 17,756 cpm
T1 construct: endogenous in cells; host or cells: ESb mouse lymphoma cells
T1 sequence (Q6YGZ1 150-535 limits assumed): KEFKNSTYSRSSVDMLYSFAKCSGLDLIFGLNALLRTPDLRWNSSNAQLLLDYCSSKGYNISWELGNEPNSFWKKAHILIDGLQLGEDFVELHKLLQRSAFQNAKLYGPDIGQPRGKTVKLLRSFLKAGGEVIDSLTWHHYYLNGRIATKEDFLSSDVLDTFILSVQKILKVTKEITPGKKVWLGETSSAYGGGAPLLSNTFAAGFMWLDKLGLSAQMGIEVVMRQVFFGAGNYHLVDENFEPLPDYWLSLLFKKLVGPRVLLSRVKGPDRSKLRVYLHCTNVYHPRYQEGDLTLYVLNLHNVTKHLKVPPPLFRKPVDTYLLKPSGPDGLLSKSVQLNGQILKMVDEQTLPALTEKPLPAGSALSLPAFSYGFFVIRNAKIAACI
T1 sequence (Q6YGZ1 28-101 limits assumed): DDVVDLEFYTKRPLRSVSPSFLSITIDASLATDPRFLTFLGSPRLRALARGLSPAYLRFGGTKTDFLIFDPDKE
Experimental: The ability of several of the above mentioned compounds to inhibit lymphoma-cell derived heparanse was tested in the assay system described by Vlodavsky et al. (Cancer Research. 43: 2704-2711 (1983). ³⁵S labled ECM was incubated for 24 hours with ESb mouse lymphoma heparanase in the presence of 10 ugr ml of the indicated compounds. Degradation of the sulfated glycosaminoglycan was followed by gel filtration of the supernatants. Heparanase activity is expressed as the total amount of labled low-molecular-weight fragments released from the ECM substrate. The results are summarized in Table III. Table III

[3] = PTT in rats after oral administration; assay type: in vivo; settings: 1 ml of 10%-20% solution, after 2-4 hours, around 20 sec. at time 0
Text: Moreover, since aluminon can be absorbed through the gastrointestinal tract, it can be used as an orally administratable anticoagulant (as opposed to heparin which has to be given by injection).

[4] = system: Bovine aortal smooth-muscle cells; assay: 3H thymidine incorporation in smooth muscle cells (resting, FGF- or thrombin-stimulated); assay type: cell-based; settings: for H³ thymidine incorporation per well (cpm. mean of duplicates) +FGF: FGF 250 ngr/ml, without aluminon 22,574; for H³ thymidine incorporation per well (cpm. mean of duplicates) +FGF / H³ thymidine incorporation per well (cpm. mean of duplicates) Control / H³ thymidine incorporation per well (cpm. mean of duplicates) +Thrombin: 2 days; for H³ thymidine incorporation per well (cpm. mean of duplicates) Control: resting cells, without aluminon 9.823; for H³ thymidine incorporation per well (cpm. mean of duplicates) +Thrombin: thrombin 10⁻⁶M, without aluminon 54,000
Experimental: Bovine aortal smooth-muscle cells were grown in tissue culture plates in the presence of glucose-rich medium (H-21). The cultures (around 35x10³ cells/well in 24 wells' plates) were initially supplemented with 10% fetal calf serum (FCS) for 2-3 days. The cell nutrition was then replaced by a serum-deprived medium (H-21 plus 0.2% FCS) in order to test the effect of defined growth factors on the proliferation of smooth-muscle cells and their possible inhibition by the compounds with heparin-like activity.
In the following representative experiment, the cells transferred to the serum-deprived medium were grown in the presence of thrombin (10⁻⁶M) or FGF (partially purified from bovine brain, 250 ngr/ml). Various concentrations of aluminon were added to the thrombin or FGF-treated cells and to non-treated control cultures. ³H thymidine was also added to all wells for an incubation period of 2 days. The cultures were then harvested and the ³H thymidine incorporated into DNA was measured.

lipoprotein lipase (LPL) = biological target: T2, lipoprotein lipase (LPL) (Rattus norvegicus, UniProt Q06000); assay: LPL activity in cultured heart cells and their medium after 24 hrs incubation; assay type: cell-based; settings: heart cells; for LPL activity: Total: control 3237; for LPL activity: Medium / LPL activity: Cells: mean±SEM of triplicates; for LPL activity: Medium: control 817±14; for LPL activity: Cells: control 2420±93
T2 construct: endogenous in cells; host or cells: F1 heart cell cultures from newborn rat hearts (mainly non-beating mesenchymal cells)
T2 sequence (Q06000 28-474): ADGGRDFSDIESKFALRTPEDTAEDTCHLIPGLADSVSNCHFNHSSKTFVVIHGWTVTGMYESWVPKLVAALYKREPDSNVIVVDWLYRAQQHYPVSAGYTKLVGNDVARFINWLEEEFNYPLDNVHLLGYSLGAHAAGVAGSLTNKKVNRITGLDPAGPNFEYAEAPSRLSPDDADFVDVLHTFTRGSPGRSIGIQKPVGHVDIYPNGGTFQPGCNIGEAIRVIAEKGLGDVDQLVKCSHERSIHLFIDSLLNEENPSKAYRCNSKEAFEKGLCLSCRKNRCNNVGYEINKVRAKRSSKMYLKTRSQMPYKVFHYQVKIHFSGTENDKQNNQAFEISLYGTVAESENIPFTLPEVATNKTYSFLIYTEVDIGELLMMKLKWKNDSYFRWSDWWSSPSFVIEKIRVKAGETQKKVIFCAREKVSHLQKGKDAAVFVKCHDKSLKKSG
Experimental: The enzyme LPL participate in the process of lipid transfer from the bloodstream to the tissues, LPL is bound to the external surface of cells via its association with cell-membrane glycosaminoglycans. Cultured heart cells is a powerful system in the study of the enzyme turn-over and the exploration of ways to manipulate its level since these cells are active in the biosynthesis of LPL, in addition to the surface binding of the enzyme.
F₁ heart cell cultures were prepared from newborn rat hearts as previously described (Chajek, T. et al., Biochem. Biophys. Acta 528, 456-474 (1978)). They consisted mainly of non-beating mesenchymal cells and were used 8-12 days after their isolation.
The enzyme activity was determined on aliquots of medium and of homogenates of cells which had been released from the petri dish with a rubber policeman in 1 ml of 0.025 M NH₃/NH₄Cl buffer (pH 8.1) containing 1 unit/ml of heparin. The assay system consisted of 0.1 ml of medium or 0.1 ml of cell homogenate ([…]) and 0.1 ml of substrate containing labeled triolein, prepared according to the method of Nilsson-Ehle and Schotz, (J. Lipid Res. 17, 536-541 (1976)). Incubations were carried out at 37°C for 45 min. The reaction was stopped by the addition of methanol/chloroform/heptane (1.4:1.25:1.v/v) and the extraction of fatty acids was performed according to the method of Belfrage and Vaughan (J. Lipid Res. 10, 341-344 (1969), as modified by Nilsson-Ehle and Schotz. Enzyme activity was calculated according to the formula of Nilsson-Ehle and Schotz.

normal pooled plasma = assay: Activated partial thromboplastin time (APTT) in normal pooled plasma; assay type: biochemical; settings: Concentration 0.2 mg/mL; normal pooled plasma alone 25 - 28 sec.
Experimental: Measurement of Activated Partial Thromboplastin Time (APTT)
Utilizing the following procedure, the activated partial thromboplastin time (APTT) was measured for each of comparative compounds A-D:
To an assay cuvette was added 100 ul of normal pooled plasma (George King Biomedical Inc., Kansas) and 100 ul of a solution containing one of the above compounds in aqueous 50 mM Tris hydrochloride at pH 7.5 (0.2 mg of sample in one mL buffer). The sample was placed in a MLA coagulation timer which automatically maintained the sample at 37°C for 2.5 minutes, injected 100 ul of actin activated cephaloplastin reagent, kept 5 minutes, injected 100 ul of 3 mM CaCl, and the clot formation was determined photometrically and the time recorded.

Which “Minimum Final Concentration” value [1] does the source give for Methyl Violet here?
Its value is 75.0 µg/mL.

For `CCN(Cc1cccc(S(=O)(=O)O)c1)c1ccc(C(=C2C=CC(=[N+](CC)Cc3cccc(S(=O)(=O)O)c3)C=C2)c2ccc(O)cc2S(=O)(=O)[O-])cc1` [Fast Green], which “% Inhibition” value [2] is on record?
Its value is 32%.

What about the “Total low-mol-wt. HS fragments released by heparanase (cpm)” value [2] of the same compound?
Its value is 12,139 cpm.

With `Cc1cc(C(=C2C=CC(=N)C=C2)c2ccc(N)cc2)ccc1N` [Rosaniline Chloride] as the compound, how does the “Minimum Final Concentration” value [1] read?
The value was 12.5 µg/mL.

Which “Minimum Final Concentration” value [1] does the source give for Aniline Blue here?
Its value is 150.0 µg/mL.

Which “Minimum Final Concentration” value [1] does the source give for `CN(C)c1ccc(C(=C2C=CC(=[N+](C)C)C=C2)c2ccc(N(C)C)cc2)cc1` [Crystal Violet] here?
Its value is 8.3 µg/mL.

Which “% Inhibition” value [2] does the source give for `O=C(O)C1=CC(=C(c2ccc(O)c(C(=O)O)c2)c2ccc(O)c(C(=O)O)c2)C=CC1=O` [Aluminon, aurintricarboxylic acid] here?
Its value is 78%.

And the PTT [3]?
The PTT was > 200 s.

And the “H³ thymidine incorporation per well (cpm. mean of duplicates) +FGF” value ([4]; Aluminon 0.2 µgr/ml)?
The value was 22,256 cpm.

What about the “H³ thymidine incorporation per well (cpm. mean of duplicates) Control” value ([4]; Aluminon 0.2 µgr/ml) of the same compound?
Its value is 8,425 cpm.

What about the “H³ thymidine incorporation per well (cpm. mean of duplicates) +Thrombin” value ([4]; Aluminon 0.2 µgr/ml) of the same compound?
Its value is 46,857 cpm.

What about the “H³ thymidine incorporation per well (cpm. mean of duplicates) +FGF” value ([4]; Aluminon 2 µgr/ml) of the same compound?
The value was 13,089 cpm.

And the “H³ thymidine incorporation per well (cpm. mean of duplicates) Control” value ([4]; Aluminon 2 µgr/ml)?
Its value is 5,120 cpm.

And the “H³ thymidine incorporation per well (cpm. mean of duplicates) +Thrombin” value ([4]; Aluminon 2 µgr/ml)?
Its value is 14,064 cpm.

What about the “H³ thymidine incorporation per well (cpm. mean of duplicates) +FGF” value ([4]; Aluminon 10 µgr/ml) of the same compound?
Its value is 6,846 cpm.

And the “H³ thymidine incorporation per well (cpm. mean of duplicates) Control” value ([4]; Aluminon 10 µgr/ml)?
The value was 4,105 cpm.

What about the “H³ thymidine incorporation per well (cpm. mean of duplicates) +Thrombin” value ([4]; Aluminon 10 µgr/ml) of the same compound?
The value was 6,877 cpm.

And the “H³ thymidine incorporation per well (cpm. mean of duplicates) +FGF” value ([4]; Aluminon 20 µgr/ml)?
The value was 6,745 cpm.

What about the “H³ thymidine incorporation per well (cpm. mean of duplicates) Control” value ([4]; Aluminon 20 µgr/ml) of the same compound?
Its value is 4,343 cpm.

And the “H³ thymidine incorporation per well (cpm. mean of duplicates) +Thrombin” value ([4]; Aluminon 20 µgr/ml)?
Its value is 5,705 cpm.

What about the inhibition ([4]; aluminon concentration of 2 µgr/ml (∼4x10⁻⁶M)) of the same compound?
The inhibition was “More than 40%”.

Which “Minimum Final Concentration” value [1] does the source give for Brilliant Cresyl Blue here?
Its value is 150.0 µg/mL.

For `CCN(CC)c1ccc(C(=C2C=CC(=[N+](CC)CC)C=C2)c2ccc(N(CC)CC)cc2)cc1.[Cl-]` [Ethyl Violet], which “Minimum Final Concentration” value [1] is on record?
The value was 50.0 µg/mL.

For `O=S(=O)(O)c1ccc(N=C2C=CC(=C(c3ccc(Nc4ccc(S(=O)(=O)O)cc4)cc3)c3ccc(Nc4ccc(S(=O)(=O)O)cc4)cc3)C=C2)cc1` [Methyl Blue], which “% Inhibition” value [2] is on record?
The value was 23%.

And the “Total low-mol-wt. HS fragments released by heparanase (cpm)” value [2]?
Its value is 13,676 cpm.

And the “Minimum Final Concentration” value [1]?
Its value is 100.0 µg/mL.

Which results are given for `Cc1cc(-c2ccc(/N=N/c3ccc4c(S(=O)(=O)[O-])cc(S(=O)(=O)[O-])c(N)c4c3O)c(C)c2)ccc1/N=N/c1ccc2c(S(=O)(=O)[O-])cc(S(=O)(=O)[O-])c(N)c2c1O.[Na+].[Na+].[Na+].[Na+]` [Evan's Blue]?
% Inhibition [2]: 60%; Total low-mol-wt. HS fragments released by heparanase (cpm) [2]: 6,986 cpm; % increase in the total (lipoprotein lipase (LPL); Evan's Blue 10⁻³ M): +139.4%; LPL activity: Total (lipoprotein lipase (LPL); Evan's Blue 10⁻³ M): 7749 m mole FFA/h/dish; LPL activity: Medium (lipoprotein lipase (LPL); Evan's Blue 10⁻³ M): 6051±435 m mole FFA/h/dish; LPL activity: Cells (lipoprotein lipase (LPL); Evan's Blue 10⁻³ M): 1698±184 m mole FFA/h/dish; % increase in the total (lipoprotein lipase (LPL); Evan's Blue 10⁻⁴ M): +61.6%; LPL activity: Total (lipoprotein lipase (LPL); Evan's Blue 10⁻⁴ M): 5230 m mole FFA/h/dish; LPL activity: Medium (lipoprotein lipase (LPL); Evan's Blue 10⁻⁴ M): 2783±194 m mole FFA/h/dish; LPL activity: Cells (lipoprotein lipase (LPL); Evan's Blue 10⁻⁴ M): 2447±48 m mole FFA/h/dish; % increase in the total (lipoprotein lipase (LPL); Evan's Blue 10⁻⁵ M): +32.5%; LPL activity: Total (lipoprotein lipase (LPL); Evan's Blue 10⁻⁵ M): 4288 m mole FFA/h/dish; LPL activity: Medium (lipoprotein lipase (LPL); Evan's Blue 10⁻⁵ M): 1531±182 m mole FFA/h/dish; LPL activity: Cells (lipoprotein lipase (LPL); Evan's Blue 10⁻⁵ M): 2757±114 m mole FFA/h/dish

Which “Minimum Final Concentration” value [1] does the source give for Basic Fuchsin here?
Its value is 50.0 µg/mL.

For `CN(C)c1ccc(C(=C2C=CC(=[N+](C)C)C=C2)c2ccccc2)cc1` [Malachite Green], which “Minimum Final Concentration” value [1] is on record?
Its value is 150.0 µg/mL.

Which “Minimum Final Concentration” value [1] does the source give for `CN(C)c1ccc(C(=C2C=CC(=[N+](C)C)C=C2)c2ccc([N+](C)(C)C)cc2)cc1.[Cl-].[Cl-]` [Methyl Green] here?
Its value is 50.0 µg/mL.

For `O=C(O)C1=CC(=C(c2ccc(O)c(C(=O)O)c2)c2ccc(O)c(C(=O)O)c2)C=CC1=O` [Comparative Compound C], which “APTT” value (normal pooled plasma) is on record?
The value was 28 s.

For `Cc1cc2nc3cc(C)c(N)cc3[n+](-c3ccccc3)c2cc1N.[Cl-]` [Safranin O], which “Minimum Final Concentration” value [1] is on record?
The value was 150.0 µg/mL.
